Key:
DC 2.4 cells = experiment: Transfection of eGFP-expressing mRNA in DC 2.4 cells (FCM and LSCM); assay type: cell-based, mouse; settings: material 0.25-2 μg/well, mRNA 0.2 μg/well, 24 h, compared with Lipofectamine 2000
Experimental: In this experiment, with eGFP-mRNA as model mRNA, an mRNA transfection efficiency of a cationic lipid analog material in DC 2.4 cells was detected. A specific operation method was as follows:
DC 2.4 cells were inoculated in a 48-well plate and cultured in an incubator for 12 h; each of different cationic lipid analog materials (0.25 μg/well to 2 μg/well) was mixed with eGFP-expressing mRNA (0.2 μg/well) in 20 μL of a sodium acetate buffer (25 mM, pH 5.2), and resulting mixtures each were allowed to stand for 10 min and then diluted with 230 μL of a Opti-MEM medium to obtain mRNA-loaded complex particle solutions; a medium for the DC 2.4 cells in the plate was removed, then the DC 2.4 cells were washed once with PBS, and the complex particle solutions each were added; and the cells were cultured for 24 h, an mRNA transfection efficiency in cells was observed by FCM and LSCM. A commercial gene transfection reagent Lipofectamine 2000 was adopted as a positive control.

HeLa cells [1] = experiment: Transfection of GFP-expressing plasmid DNA in HeLa cells (FCM); assay type: cell-based; settings: material 0.25-8 μg/well, plasmid DNA 0.5 μg/well, 24 h, compared with Lipofectamine 2000
Experimental: In this experiment, with GFP-expressing plasmid DNA as a reporter gene, a gene transfection efficiency of a cationic lipid analog material in HeLa cells was detected. A specific method was as follows:
HeLa cells were inoculated in a 24-well plate and cultured in an incubator for 12 h; each of different cationic lipid analog materials—(0.25 μg/well to 8 μg/well) was mixed with GFP-expressing plasmid DNA (0.5 μg/well) in 40 μL of a sodium acetate buffer (25 mM, […] resulting mixtures each were allowed to stand for 10 min and then diluted with 460 μL of a Opti-MEM medium to obtain plasmid DNA-loaded cationic lipid analog complex particle solutions; a medium for the HeLa cells in the plate was removed, then the HeLa cells were washed once with PBS, and the complex particle solutions each were added; and the cells were further cultured for 24 h, and then a plasmid DNA transfection efficiency in cells was analyzed by FCM. A commercial gene transfection reagent Lipofectamine 2000 was adopted as a positive control.

HeLa cells [2] = experiment: Transfection of luciferase-expressing plasmid DNA in HeLa cells; assay type: cell-based; settings: 24 h, compared with Lipofectamine 2000
Experimental: In this example, with luciferase-expressing plasmid DNA as a reporter gene, a gene transfection efficiency of a cationic lipid analog material in HeLa cells was detected. A specific operation method was as follows: HeLa cells were inoculated in a 96-well plate and cultured in an incubator for 12 h; each of different cationic lipid analog materials was mixed with luciferase-expressing plasmid DNA (0.5 μg) in 40 μL of a sodium acetate buffer (25 mM, pH 5.2), and resulting mixtures each were allowed to stand for 10 min and then diluted with 460 μL of a Opti-MEM medium to obtain plasmid DNA-loaded cationic lipid analog complex particle solutions; a medium for the HeLa cells in the plate was removed, then the HeLa cells were washed once with PBS, and the complex particle solutions each were added in a volume of 125 μL; the cells were further cultured for 24 h, then a resulting culture supernatant was discarded, and the cells were fully lysed; and a substrate was added at 50 μl/well, and an expression level of luciferase was detected by a multi-mode microplate reader.

SMILES | mRNA transfection efficiency (eGFP-mRNA) (DC 2.4 cells) | transfection efficiency of GFP-expressing plasmid DNA (positive rate) (HeLa cells [1]) | transfection efficiency of luciferase-expressing plasmid DNA (luciferase expression) (HeLa cells [2])
CCCCCCCCCCCCCC(=O)N(CCCCN(C)C)C(C(=O)NCCCCCCNC(=O)C(C(C)C)N(CCCN(C)C)C(=O)CCCCCCCCCCCCC)C(C)C (stereo not shown) [I1R2C14A1] | equivalent to or higher than | equivalent to or higher than | equivalent to or higher than
CCCCCCCCCCCCCCCC(=O)N(CCCN(C)C)C(C(=O)NCCCCCCNC(=O)C(C(C)C)N(CCCN(C)C)C(=O)CCCCCCCCCCCCCCC)C(C)C (stereo not shown) [I1R2C16A1] | equivalent to or higher than |  | 
CCCCCCCC/C=C\CCCCCCCC(=O)N(CCCN(C)C)C(C(=O)NCCCCCCNC(=O)C(C(C)C)N(CCCN(C)C)C(=O)CCCCCCC/C=C\CCCCCCCC)C(C)C (stereo not shown) [I1R2C18-1A1] | equivalent to or higher than |  | 
CCCCC/C=C\C/C=C\CCCCCCCC(=O)N(CCCN(C)C)C(C(=O)NCCCCCCNC(=O)C(C(C)C)N(CCCN(C)C)C(=O)CCCCCCC/C=C\C/C=C\CCCCC)C(C)C (stereo not shown) [I1R2C18-2A1] | equivalent to or higher than | equivalent to or higher than | 
CCCCCCCCCCCCCCCCCC(=O)N(CCCN(C)C)C(C(=O)NCCCCCCNC(=O)C(C(C)C)N(CCCN(C)C)C(=O)CCCCCCCCCCCCCCCCC)C(C)C (stereo not shown) [I1R2C18A1] | equivalent to or higher than |  | 
CCCCCCCCCCCCCC(=O)N(CCC1CCCN1C)C(C(=O)NCCCCCCNC(=O)C(C(C)C)N(CCC1CCCN1C)C(=O)CCCCCCCCCCCCC)C(C)C (stereo not shown) [I1R11C14A1] | equivalent to or higher than | equivalent to or higher than | equivalent to or higher than
CCCCCCCCCCCCCCCC(=O)N(CCC1CCCN1C)C(C(=O)NCCCCCCNC(=O)C(C(C)C)N(CCC1CCCN1C)C(=O)CCCCCCCCCCCCCCC)C(C)C (stereo not shown) [I1R11C16A1] | equivalent to or higher than |  | 
CCCCCCCCCCCCCCCCCC(=O)N(CCC1CCCN1C)C(C(=O)NCCCCCCNC(=O)C(C(C)C)N(CCC1CCCN1C)C(=O)CCCCCCCCCCCCCCCCC)C(C)C (stereo not shown) [I1R11C18A1] | equivalent to or higher than |  | 
CCCCCCCCCCCCCC(=O)N(CCN(C)C)C(C(=O)NCCOCCOCCNC(=O)C(C(C)C)N(CCN(C)C)C(=O)CCCCCCCCCCCCC)C(C)C (stereo not shown) [I2R1C14A1] | equivalent to or higher than | equivalent to or higher than | equivalent to or higher than
CCCCCCCCCCCCCCCC(=O)N(CCN(C)C)C(C(=O)NCCOCCOCCNC(=O)C(C(C)C)N(CCN(C)C)C(=O)CCCCCCCCCCCCCCC)C(C)C (stereo not shown) [I2R1C16A1] | equivalent to or higher than | equivalent to or higher than | equivalent to or higher than
CCCCCCCC/C=C\CCCCCCCC(=O)N(CCN(C)C)C(C(=O)NCCOCCOCCNC(=O)C(C(C)C)N(CCN(C)C)C(=O)CCCCCCC/C=C\CCCCCCCC)C(C)C (stereo not shown) [I2R1C18-1A1] | equivalent to or higher than | equivalent to or higher than | equivalent to or higher than
CCCCC/C=C\C/C=C\CCCCCCCC(=O)N(CCN(C)C)C(C(=O)NCCOCCOCCNC(=O)C(C(C)C)N(CCN(C)C)C(=O)CCCCCCC/C=C\C/C=C\CCCCC)C(C)C (stereo not shown) [I2R1C18-2A1] |  | equivalent to or higher than | 
CCCCCCCCCCCCCC(=O)N(CCCN(C)C)C(C(=O)NCCOCCOCCNC(=O)C(C(C)C)N(CCCN(C)C)C(=O)CCCCCCCCCCCCC)C(C)C (stereo not shown) [I2R2C14A1] | equivalent to or higher than | equivalent to or higher than | 
CCCCCCCCCCCCCC(=O)C(CCCN(CC)CC)C(C(=O)NCCOCCOCCNC(=O)C(C(C)C)N(CCCN(CC)CC)C(=O)CCCCCCCCCCCCC)C(C)C (stereo not shown) [I2R3C14A1] | equivalent to or higher than |  | 
CCCCCCCCCCCCCCCC(=O)C(CCCN(CC)CC)C(C(=O)NCCOCCOCCNC(=O)C(C(C)C)N(CCCN(CC)CC)C(=O)CCCCCCCCCCCCCCC)C(C)C (stereo not shown) [I2R3C16A1] | equivalent to or higher than | equivalent to or higher than | equivalent to or higher than
CCCCCCCCCCCCCCCCCC(=O)C(CCCN(CC)CC)C(C(=O)NCCOCCOCCNC(=O)C(C(C)C)N(CCCN(CC)CC)C(=O)CCCCCCCCCCCCCCCCC)C(C)C (stereo not shown) [I2R3C18A1] | equivalent to or higher than | equivalent to or higher than | equivalent to or higher than
CCCCCCCCCCCCCCN(CCC1CCCN1C)C(C(=O)NCCOCCOCCNC(=O)C(C(C)C)N(CCC1CCCN1C)C(=O)CCCCCCCCCCCCC)C(C)C (stereo not shown) [I2R11C14A1] | equivalent to or higher than | equivalent to or higher than | 
CCCCCCCCCCCCCCCCN(CCC1CCCN1C)C(C(=O)NCCOCCOCCNC(=O)C(C(C)C)N(CCC1CCCN1C)C(=O)CCCCCCCCCCCCCCC)C(C)C (stereo not shown) [I2R11C16A1] | equivalent to or higher than | equivalent to or higher than | 
CCCCCCCC/C=C\CCCCCCCC(=O)N(CCC1CCCN1C)C(C(=O)NCCOCCOCCNC(=O)C(C(C)C)N(CCC1CCCN1C)C(=O)CCCCCCC/C=C\CCCCCCCC)C(C)C (stereo not shown) [I2R11C18-1A1] | equivalent to or higher than | equivalent to or higher than | 
CCCCC/C=C\C/C=C\CCCCCCCC(=O)N(CCC1CCCN1C)C(C(=O)NCCOCCOCCNC(=O)C(C(C)C)N(CCC1CCCN1C)C(=O)CCCCCCC/C=C\C/C=C\CCCCC)C(C)C (stereo not shown) [I2R11C18-2A1] | equivalent to or higher than | equivalent to or higher than | equivalent to or higher than
CCCCCCCCCCCCCCCCCCN(CCC1CCCN1C)C(C(=O)NCCOCCOCCNC(=O)C(C(C)C)N(CCC1CCCN1C)C(=O)CCCCCCCCCCCCCCCCC)C(C)C (stereo not shown) [I2R11C18A1] | equivalent to or higher than | equivalent to or higher than | 

From patent US20230390402A1, “IONIZABLE CATIONIC LIPID ANALOG MATERIAL AND USE THEREOF AS DRUG DELIVERY CARRIER” (GUANGZHOU LIDE BIOMEDICINE TECHNOLOGY CO., LTD., priority 2021, published 2023)
